Measured values from US20210038554A1, “DIETARY BUTYRATE” (SOCIETE DES PRODUITS NESTLE S.A., priority 2018, published 2021).

What was measured:
[1] = target: T1, porcine pancreatic lipase (from pancreatin) (Sus scrofa, UniProt P00591); test: In vitro digestion, simulated intestinal fluid (SIF) model, pH-stat; type: in vitro ADME; settings: SIF alone; 200 mg fat emulsion, pH 6.8, 37° C.
T1 construct: pancreatin (Porcine, USP×8, P7585); purchased Sigma-Aldrich P7585; host or cells: porcine pancreas extract (pancreatin)
T1 sequence (P00591 1-450): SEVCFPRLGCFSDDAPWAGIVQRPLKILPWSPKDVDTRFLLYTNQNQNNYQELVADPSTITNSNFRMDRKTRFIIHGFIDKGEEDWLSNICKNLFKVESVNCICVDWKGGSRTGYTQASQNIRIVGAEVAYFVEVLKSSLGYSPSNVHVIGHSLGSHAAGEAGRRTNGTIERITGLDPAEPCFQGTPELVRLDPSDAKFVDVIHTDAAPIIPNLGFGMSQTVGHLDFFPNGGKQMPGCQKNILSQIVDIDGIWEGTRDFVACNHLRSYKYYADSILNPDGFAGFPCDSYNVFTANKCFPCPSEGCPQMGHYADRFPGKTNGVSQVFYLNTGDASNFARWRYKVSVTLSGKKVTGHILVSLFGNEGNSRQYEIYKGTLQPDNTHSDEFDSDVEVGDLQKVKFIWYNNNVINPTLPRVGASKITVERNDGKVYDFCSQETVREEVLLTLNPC
T1 sequence (P02703 23-112 partner): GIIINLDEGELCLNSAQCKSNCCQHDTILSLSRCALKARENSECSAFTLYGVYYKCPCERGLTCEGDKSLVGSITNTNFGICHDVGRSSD
Experimental: (§1) The lipid emulsion (2 mL) containing 200 mg of fat was subjected to gastrointestinal in vitro lipolysis. […] For gastric digestion, the sample was incubated for 90 minutes with 8.5 mL of simulated gastric fluid (SGF), which consisted of 150 mM NaCl, 450 U/mL pepsin, 18 U/mL rabbit gastric lipase at 37° C. and a pH of 5.5.
The intestinal digestion step was performed in the pH stat where the pH was kept constant at 6.8 by addition of NaOH (0.05 M). […] The intestinal digestion step starts when the temperature reaches 37±0.5° C. The pH was adjusted to pH 6.8 and after incubation of two minutes at this pH and temperature, a pancreatin solution (5 mM tris, 150 mM NaCl at pH 6.8) was added. […] During the intestinal phase of digestion, the kinetics of digestion were followed using a pH-stat (TIM856, Radiometer) technique and expressed as titratable acid (rather than fatty acid) that was calculated by the equation: […]
(§2) Since the digestion of dietary lipids involves lipases of both gastric and intestinal origin, lipid digestibility was assessed using two digestion models i) simulated intestinal fluid (SIF) with porcine pancreatic lipase (PPL) and ii) sequential digestion in simulated gastric fluid (SGF) with rabbit gastric lipase (RGL) followed by simulated intestinal fluid (SIF) with porcine pancreatic lipase (PPL).

[2] = system: rabbit gastric lipase (RGL) followed by porcine pancreatic lipase (PPL); test: In vitro sequential digestion SGF followed by SIF, pH-stat; type: in vitro ADME
Experimental: as §1
The intestinal digestion step was performed in the pH stat where the pH was kept constant at 6.8 by addition of NaOH (0.05 M). […] The intestinal digestion step starts when the temperature reaches 37±0.5° C. The pH was adjusted to pH 6.8 and after incubation of two minutes at this pH and temperature, a pancreatin solution (5 mM tris, 150 mM NaCl at pH 6.8) was added. The final composition of the intestinal fluid was 10 mM CaCl2), 12 mM mixed bile salts, 0.75 mM phospholipid, 150 mM NaCl and 4 mM tris(hydroxymethyl)aminomethane buffer. The intestinal digestion step was carried out for 3 hours in a titration manager from Radiometer. During the intestinal phase of digestion, the kinetics of digestion were followed using a pH-stat (TIM856, Radiometer) technique and expressed as titratable acid (rather than fatty acid) that was calculated by the equation:
TA: Total titratable acid released, mmol; VNaOH: volume of NaOH used to titrate the released acid in 3 h, mL.
as §2

SMILES: CCCC(=O)OCC(COC(=O)CCC)OC(=O)CCC [tributyrin]
- initial rate of lipolysis [1]: 223 ± 59 µmol/min
- initial lipolysis rate in SIF after SGF ([2]; SGF-SIF sequential digestion, 200 mg fat emulsion): 44.1 ± 8.8 µmol/min
- extent of hydrolysis in the stomach (gastric lipolysis) ([2]; in words): extensive hydrolysis in the stomach
- lipolysis by gastric lipase ([2]; indicated by decreased total fatty acid release in SIF after RGL in SGF): ~60%
